Data set [1] in a line: in vitro. The settings on record: human.
A short description of data set [2]: physchem. The settings on record: pH 7.4 buffer.
A short description of data set [3]: in vitro. The conditions noted are these: hepatocytes.
Data set [4] is described as follows: physchem. The settings on record: octan-1-ol/water, pH 7.4, LogD7.4.

What is called microsomal CLint is the rate of metabolic loss divided by the concentration. High values mean rapid turnover, low ones slow turnover. By thermodynamic solubility is commonly meant the concentration in solution at equilibrium with solid. By hepatocyte CLint is commonly meant the capacity of the preparation to metabolise the compound, expressed as a volume cleared per time. Low readings indicate greater metabolic stability, high ones faster metabolism. As usually defined, the logD is lipophilicity at a set pH, counting ionised and neutral species. Low readings indicate a more hydrophilic compound, high ones a more lipophilic compound.

Structures are written as SMILES. Values after ≈ are worked out from the molar mass of the structure shown. A value given as a limit tells only on which side of the number the result lay.

As to `Cc1nc2ccccn2c1-c1ccnc(N)n1`, the microsomal CLint in “in vitro [1]” (microsomes) was determined as 50.1 µL/min/mg. The molecule further registered a thermodynamic solubility in “physchem [2]” of 1510 µM (≈ 341 µg/mL). Also, in “in vitro [3]”, the hepatocyte CLint is 21.4 µL/min/1e6 cells.
Regarding `O=C(CCOCCc1ccccc1)NCCNCCc1ccc(O)c2nc(O)sc12`, the microsomal CLint in the data set “in vitro [1]” (microsomes) worked out at 25 µL/min/mg. Besides, the thermodynamic solubility in the data set “physchem [2]” came out at 1510 µM (≈ 650 µg/mL). The hepatocyte CLint in “in vitro [3]” was 72 µL/min/1e6 cells.
The molecule `COc1cc(-c2ccc(Nc3ccccc3C(=O)O)c(OC)c2)ccc1Nc1ccccc1C(=O)O` had a microsomal CLint in “in vitro [1]” (liver microsomes) of 6.61 µL/min/mg. In the data set “physchem [4]”, this molecule showed a logD of 1.8. In the data set “in vitro [3]”, the hepatocyte CLint came to 31.6 µL/min/1e6 cells.
As to `Oc1ncnc2c1c(-c1ccccc1)cn2-c1ccc(Br)cc1`, in the data set “in vitro [1]” (liver microsomes), the microsomal CLint stood at 60.3 µL/min/mg. This molecule had a thermodynamic solubility in the data set “physchem [2]” of 1.6 µM (≈ 0.586 µg/mL). The same molecule yielded a hepatocyte CLint in “in vitro [3]” of 52.5 µL/min/1e6 cells.
Turning to `Cc1c(C(=O)Nc2ccccc2)sc2ncnc(O)c12`, in the data set “in vitro [1]” (liver microsomes), the intrinsic metabolic clearance (microsomal CLint) came to 5 µL/min/mg. For the same molecule, the logD in “physchem [4]” was 2.13. Also, the solubility (thermodynamic) in the data set “physchem [2]” came out at 22.4 µM (≈ 6.39 µg/mL). In “in vitro [3]”, this molecule returned a hepatocyte CLint greater than 150 µL/min/1e6 cells.
On to `Cc1cc(C)nc(SCC(=O)Nc2cc(C)on2)n1`, for which the microsomal CLint in “in vitro [1]” (liver microsomes) was greater than 150 µL/min/mg. Moreover, in the data set “physchem [4]”, the logD was 1.52. In the data set “in vitro [3]”, this molecule returned a hepatocyte CLint of 141 µL/min/1e6 cells.
Consider `CCN(CC)CCn1c2ccccc2c2cnc(N)c(C#N)c21`, for which the microsomal CLint in the data set “in vitro [1]” (microsomes) was 71 µL/min/mg. In addition, the logD in “physchem [4]” was 2.7. This molecule also had a solubility (thermodynamic) in “physchem [2]” of 58.9 µM (≈ 18.1 µg/mL). The molecule further showed a hepatocyte CLint in “in vitro [3]” of 77 µL/min/1e6 cells.
The molecule `Cc1cc(CN2CCc3ccccc3C2C(=O)Nc2ccc(Cl)cc2Cl)ccc1OCC(=O)O` (stereo unspecified) yielded a microsomal CLint in “in vitro [1]” (microsomes) of 15 µL/min/mg. The same molecule returned a logD in “physchem [4]” of 2.63. The molecule further registered a thermodynamic solubility in “physchem [2]” of 166 µM (≈ 82.9 µg/mL). The hepatocyte CLint in the data set “in vitro [3]” was found to be 20 µL/min/1e6 cells.
`C[C@H]1C[C@@H](NS(=O)(=O)c2cc(Br)ccc2Br)CN1C#N`: the microsomal CLint in “in vitro [1]” (microsomes) came to 16 µL/min/mg. The molecule further had a logD in the data set “physchem [4]” of 2.13. The solubility (thermodynamic) in the data set “physchem [2]” is 31.6 µM (≈ 13.4 µg/mL). In the data set “in vitro [3]”, the hepatocyte CLint stood at 39 µL/min/1e6 cells.
`CCNC(=O)c1cnc(N2CCN(C3CCN(Cc4ccc(Cl)cc4F)CC3)[C@@H](CC)C2)c(Cl)c1` had a microsomal CLint in “in vitro [1]” (microsomes) of 11 µL/min/mg. For the same molecule, the solubility (thermodynamic) in “physchem [2]” was 91.2 µM (≈ 47.7 µg/mL). This molecule also came in with a hepatocyte CLint in “in vitro [3]” of 38 µL/min/1e6 cells.
In turn, `O=c1[nH]c2c(O)ccc([C@@H](O)CNCCSCCCNCCc3cccc(C(F)(F)F)c3)c2s1` displayed a microsomal CLint in the data set “in vitro [1]” (liver microsomes) of 13 µL/min/mg. The logD in “physchem [4]” turned out to be 1.21. The hepatocyte CLint in the data set “in vitro [3]” came to 6 µL/min/1e6 cells.
As to `Cc1ccc(S(=O)(=O)Nc2c(C(=O)N(C)C3CCCCC3)c(C)nn2-c2ccccc2)cc1`, in the data set “in vitro [1]” (liver microsomes), the microsomal CLint is 53 µL/min/mg. In the data set “physchem [4]”, this molecule registered a logD of 1.69. The same molecule returned a hepatocyte CLint in “in vitro [3]” of 21 µL/min/1e6 cells.
Molecule `Cc1ccc(S(=O)(=O)Nc2c(C(=O)NC3CCCCC3C)cnn2-c2ccccc2)cc1` (stereo unspecified) came in with a microsomal CLint in “in vitro [1]” (liver microsomes) of 59 µL/min/mg. This molecule also displayed a logD in “physchem [4]” of 1.34. This molecule displayed a hepatocyte CLint in the data set “in vitro [3]” of 5 µL/min/1e6 cells.
With `Cc1ccc(S(=O)(=O)Nc2c(C(=O)N[C@@H](C)C(C)(C)C)c(C)nn2C2CCCCC2)cc1`, the microsomal CLint in “in vitro [1]” (microsomes) was 33 µL/min/mg. In addition, the logD in “physchem [4]” is 1.97. For the same molecule, in the data set “physchem [2]”, the thermodynamic solubility amounted to 871 µM (≈ 401 µg/mL). The hepatocyte CLint in “in vitro [3]” was determined as 8 µL/min/1e6 cells.
With `CN1CCC(Oc2cccc3ncnc(Nc4ccc(OCc5ccccn5)c(Cl)c4)c23)CC1`, in the data set “in vitro [1]” (liver microsomes), the microsomal CLint was 22 µL/min/mg. In the data set “physchem [2]”, the solubility (thermodynamic) amounted to 1.5 µM (≈ 0.714 µg/mL). Also, in the data set “in vitro [3]”, the hepatocyte CLint stood at 11 µL/min/1e6 cells.
In turn, `O=c1[nH]c2c(O)ccc([C@@H](O)CNCCc3ccc(CNCCc4ccccc4F)cc3)c2s1` had a microsomal CLint in the data set “in vitro [1]” (microsomes) of 22 µL/min/mg. Moreover, the logD in “physchem [4]” is 1.3. This molecule had a hepatocyte CLint in “in vitro [3]” of 14 µL/min/1e6 cells.
`O=c1[nH]c2c(O)ccc([C@@H](O)CNCCc3ccccc3CNCCc3ccccc3F)c2s1` came in with a microsomal CLint in the data set “in vitro [1]” (microsomes) of 27.5 µL/min/mg. In the data set “physchem [4]”, this molecule gave a logD of 1.58. The same molecule gave a hepatocyte CLint in “in vitro [3]” of 107 µL/min/1e6 cells.
With `COc1ccccc1CN(C)Cc1cccc(CCNC[C@H](O)c2ccc(O)c3[nH]c(=O)sc23)c1`, in “in vitro [1]” (liver microsomes), the microsomal CLint was 45 µL/min/mg. In the data set “physchem [4]”, the logD was found to be 1.52. Further, the hepatocyte CLint in the data set “in vitro [3]” stood at 33 µL/min/1e6 cells.
In the data set “in vitro [1]” (liver microsomes), `N[C@@H]1CCCN(c2c(/C=C3\SC(=O)NC3=O)cccc2-c2ccncc2)C1` came in with a microsomal CLint of 8.51 µL/min/mg. In the data set “physchem [4]”, the logD is 1.56. Besides, the hepatocyte CLint in “in vitro [3]” was 8.91 µL/min/1e6 cells.
`N#CC1(NC(=O)[C@@H]2CCCC[C@H]2C(=O)N2CCc3[nH]c4ccc(F)cc4c3C2)CC1` yielded a microsomal CLint in the data set “in vitro [1]” (liver microsomes) of 12.5 µL/min/mg. For the same molecule, the solubility (thermodynamic) in the data set “physchem [2]” amounted to 525 µM (≈ 214 µg/mL). This molecule also had a hepatocyte CLint in the data set “in vitro [3]” of 41.4 µL/min/1e6 cells.
`CC[C@@H](Nc1c(Nc2cccc(C(=O)N(C)C)c2O)c(=O)c1=O)c1ccccc1`: in the data set “in vitro [1]” (liver microsomes), the microsomal CLint was less than 3 µL/min/mg. The logD in “physchem [4]” amounted to 2.14. The thermodynamic solubility in “physchem [2]” turned out to be 646 µM (≈ 254 µg/mL). This molecule showed a hepatocyte CLint in the data set “in vitro [3]” of 65 µL/min/1e6 cells.
In “in vitro [1]” (liver microsomes), `CN1CCN(CCOc2n[nH]c3ncnc(Nc4ccc(OCc5ccccn5)c(Cl)c4)c23)CC1` had a microsomal CLint of 30.2 µL/min/mg. In “physchem [4]”, this molecule registered a logD of 2.45. The molecule further came in with a solubility (thermodynamic) in the data set “physchem [2]” of 26.3 µM (≈ 13 µg/mL). This molecule returned a hepatocyte CLint in “in vitro [3]” of 13.5 µL/min/1e6 cells.
Molecule `Cc1ccc(CCOCCNS(=O)(=O)CCCNCCc2ccc(O)c3nc(O)sc23)cc1` gave a microsomal CLint in “in vitro [1]” (liver microsomes) greater than 150 µL/min/mg. Besides, in the data set “physchem [2]”, the thermodynamic solubility stood at 372 µM (≈ 183 µg/mL). In addition, the hepatocyte CLint in “in vitro [3]” is greater than 150 µL/min/1e6 cells.
The molecule `Cn1c(-c2ccccc2C(F)(F)F)nnc1C12CCC(c3noc(-c4ccc(F)cc4)n3)(CC1)CC2` returned a microsomal CLint in “in vitro [1]” (liver microsomes) of less than 3 µL/min/mg. The molecule also had a solubility (thermodynamic) in the data set “physchem [2]” of 0.9 µM (≈ 0.448 µg/mL). Moreover, in “in vitro [3]”, the hepatocyte CLint is 7.94 µL/min/1e6 cells.
In the case of `COc1c(Nc2ccc(S(C)(=O)=O)nc2C)ncnc1OC1CCN(C(=O)OC(C)C)CC1` [ADP-597], in the data set “in vitro [1]” (microsomes), the microsomal CLint is 19.9 µL/min/mg. In “physchem [4]”, this molecule gave a logD of 2.4. Moreover, the hepatocyte CLint in “in vitro [3]” turned out to be 6.31 µL/min/1e6 cells.
`O=C(Nc1c[nH]nc1-c1nc2cc(CN3CCOCC3)ccc2[nH]1)NC1CC1` [AT-9283]: the microsomal CLint in the data set “in vitro [1]” (liver microsomes) is 8.32 µL/min/mg. The logD in “physchem [4]” came out at 2.3. The molecule also had a hepatocyte CLint in “in vitro [3]” of less than 3 µL/min/1e6 cells.
Taken in the same sequence, the figures for `COCC1=C(C(=O)OC(C)OC(=O)OC(C)C)N2C(=O)[C@@H](NC(=O)/C(=N\OC)c3csc(N)n3)[C@H]2SC1` (stereo partly specified) [CEFPODOXIME PROXETIL] were greater than 150 µL/min/mg, 1.7 and 115 µL/min/1e6 cells.
`Cc1nccn1CCC(C(N)=O)(c1ccccc1)c1ccccc1` [IMIDAFENACIN] yielded a microsomal CLint in the data set “in vitro [1]” (liver microsomes) of less than 3 µL/min/mg. Further, the logD in “physchem [4]” was 1.79. In the data set “in vitro [3]”, the hepatocyte CLint was determined as 46 µL/min/1e6 cells.
`C[C@]1(O)C[C@@H](c2nc(-c3ccc4ccc(-c5ccccc5)nc4c3)c3c(N)nccn32)C1` [LINSITINIB]: in the data set “in vitro [1]” (liver microsomes), the microsomal CLint was found to be 17.4 µL/min/mg. In the data set “physchem [2]”, the thermodynamic solubility is 1.3 µM (≈ 0.548 µg/mL). The same molecule came in with an intrinsic clearance (hepatocyte CLint) in the data set “in vitro [3]” of 17 µL/min/1e6 cells.
In the case of `Cn1c(=O)c(Oc2ccc(F)cc2F)cc2cnc(NC(CCO)CCO)nc21` [PAMAPIMOD], the microsomal CLint in “in vitro [1]” (microsomes) is 4.57 µL/min/mg. For the same molecule, in “physchem [4]”, the logD was 1.5. The molecule further had a hepatocyte CLint in “in vitro [3]” of less than 3 µL/min/1e6 cells.
Regarding `Cc1cc(CCCOc2c(C)cc(-c3noc(C(F)(F)F)n3)cc2C)on1` [PLECONARIL], the microsomal CLint in “in vitro [1]” (liver microsomes) worked out at 14.4 µL/min/mg. In “physchem [4]”, the logD amounted to 3.63. For the same molecule, in “in vitro [3]”, the hepatocyte CLint was determined as 13.5 µL/min/1e6 cells.
Molecule `Cc1oc(=O)oc1CN1CCN(c2cc3c(cc2F)c(=O)c(C(=O)O)c2n3C(C)S2)CC1` (stereo unspecified) [PRULIFLOXACIN] displayed an intrinsic metabolic clearance (microsomal CLint) in the data set “in vitro [1]” (liver microsomes) of 15.5 µL/min/mg. This molecule had a logD in “physchem [4]” of 0.47. The molecule further had a hepatocyte CLint in “in vitro [3]” of 69.2 µL/min/1e6 cells.
In the data set “in vitro [1]” (microsomes), `Nc1c(C(=O)c2cccc(OC[C@@H](O)CO)c2)cnn1-c1ccc(F)cc1` [RO-3201195] yielded a microsomal CLint of less than 3 µL/min/mg. Also, the logD in the data set “physchem [4]” is 1.91. The molecule further registered a hepatocyte CLint in the data set “in vitro [3]” of less than 3 µL/min/1e6 cells.

Values taken from ChEMBL document CHEMBL3301361, “Experimental in vitro DMPK and physicochemical data on a set of publicly disclosed compounds”.
